Test results published in US20060239988A1, “Neuronal regeneration and compound administration methods” (priority 2003, published 2006).

How the values were obtained:
pERK with vimentin = pERK with vimentin (Homo sapiens, UniProt P28482); settings: EGTA 100 millimolar
Experimental: (§1) Pull-down assays and co-immunoprecipitations: Sciatic nerve axoplasm (500 micrograms) was pre-cleared for 1 hour with 80% protein G-Sepharose (Amersham Bioscience). Following overnight incubation with primary antibody, complexes were incubated on protein-G beads for 2 hours, washed extensively and eluted by boiling in SDS-PAGE sample buffer before loading on gels for Western blot analysis. For co-immunoprecipitation in the presence of competitors, 2 micromolar NLS (SEQ ID NO: 2) or reverse-NLS (SEQ ID NO: 3) peptide was added to the axoplasm for overnight incubation at 4 degrees centigrade. For direct pull-downs, GST-pERK (0.5 microgram) or importin-beta (1 microgram) was equilibrated in PBS or NTB and added to 500 microgram aliquots of axoplasm from different post-lesion times. […] All pull-downs were washed twice with 0.2 molar NaCl in PBS or NTB and twice again with PBS or NTB before elution in SDS-PAGE sample buffer for loading on gels.

vimentin and peripherin = settings: calpeptin 100 micromolar applied to the nerve by injection
importin-beta [1] = settings: CHX 10 micrograms/ml, ActD 5 micrograms/ml
Experimental: Electrophoretic gel autoradiography: In order to evaluate whether importin-beta is synthesized in axons, sciatic nerve segments were incubated for 6 hours in Met/Cys-deficient DMEM medium (Gibco-BRL) containing 1 mCi/ml of [35]S-Met/Cys (Amersham Bioscience), with or without 10 micrograms/ml of the translation inhibitor cycloheximide (CHX, Sigma) or 5 micrograms/ml of the transcription inhibitor actinomycin D (ActD, Sigma), followed by extrusion of the axoplasm into nuclear transport buffer. The extruded axoplasm was immunoprecipitated with anti importin-beta antibody, and the immunoprecipitate was resolved via 10% SDS-PAGE. Following electrophoresis, the gel was dried and analyzed via autoradiography using FujiFilm BAS2500.

pERK2 = pERK2 (Homo sapiens, UniProt P28482); settings: in-vitro, increased at calcium up to 1 millimolar
Experimental: as §1

importin-beta [2] = target: importin-beta (Homo sapiens, UniProt Q14974)
Experimental: GST alone was used as a negative control.
as §1

alkaline phosphatase = settings: identical concentrations of vimentin
Experimental: (§2) Alkaline phosphatase (AP; 2 units; Roche, Mannheim, Germany) or axoplasm from injured nerve (100 micrograms) was then added for an additional 30 minutes. Complexes were purified over Nickel-NTA-Agarose followed by Western blot analysis for pERK. Alkaline phosphatase activity was verified with the synthetic substrate p-nitrophenyl phosphate (pNPP, Catalog # S0942, Sigma) dissolved in 0.1 molar glycine buffer (0.1 molar glycine, 1 millimolar MgCl2, 1 millimolar ZnCl2; pH 10.4) for a stock solution of 1 mg/ml. […] The yellow hydrolysis product was quantified spectrophotometrically at 405 nm.

pERK = pERK (Homo sapiens, UniProt P28482)
Experimental: as §2

pERK, sequence (P28482 whole entry): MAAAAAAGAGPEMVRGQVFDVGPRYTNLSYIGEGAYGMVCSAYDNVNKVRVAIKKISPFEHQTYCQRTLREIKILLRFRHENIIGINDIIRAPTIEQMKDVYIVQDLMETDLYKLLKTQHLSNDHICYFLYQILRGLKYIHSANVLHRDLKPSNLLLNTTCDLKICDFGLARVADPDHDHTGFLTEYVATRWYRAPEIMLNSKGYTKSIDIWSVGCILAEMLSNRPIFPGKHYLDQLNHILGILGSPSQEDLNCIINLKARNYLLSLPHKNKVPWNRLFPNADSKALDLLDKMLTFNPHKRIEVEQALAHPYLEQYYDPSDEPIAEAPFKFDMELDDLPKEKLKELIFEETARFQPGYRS
pERK, sequence (Q14974 whole entry partner): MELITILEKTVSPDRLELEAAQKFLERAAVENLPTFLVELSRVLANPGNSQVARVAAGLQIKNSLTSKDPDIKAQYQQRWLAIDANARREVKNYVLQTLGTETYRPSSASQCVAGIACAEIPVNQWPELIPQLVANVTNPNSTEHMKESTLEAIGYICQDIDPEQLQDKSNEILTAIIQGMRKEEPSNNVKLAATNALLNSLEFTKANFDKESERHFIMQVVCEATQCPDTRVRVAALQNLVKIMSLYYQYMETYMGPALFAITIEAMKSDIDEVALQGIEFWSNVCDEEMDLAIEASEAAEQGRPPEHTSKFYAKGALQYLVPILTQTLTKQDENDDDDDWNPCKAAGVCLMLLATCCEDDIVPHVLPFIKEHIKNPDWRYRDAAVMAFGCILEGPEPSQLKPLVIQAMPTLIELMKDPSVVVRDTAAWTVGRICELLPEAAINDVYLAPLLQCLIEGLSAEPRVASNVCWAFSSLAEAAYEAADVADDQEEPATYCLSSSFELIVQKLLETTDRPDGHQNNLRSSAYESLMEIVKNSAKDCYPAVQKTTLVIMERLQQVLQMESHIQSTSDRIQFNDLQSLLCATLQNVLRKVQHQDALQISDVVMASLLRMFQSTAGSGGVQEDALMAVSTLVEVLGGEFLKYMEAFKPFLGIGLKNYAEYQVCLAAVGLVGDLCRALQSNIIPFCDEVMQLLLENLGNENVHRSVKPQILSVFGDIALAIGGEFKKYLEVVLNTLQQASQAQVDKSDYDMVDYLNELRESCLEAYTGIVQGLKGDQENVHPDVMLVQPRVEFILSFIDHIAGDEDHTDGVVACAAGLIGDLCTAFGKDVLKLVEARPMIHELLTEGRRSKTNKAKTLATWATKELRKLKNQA
pERK, sequence (P02544 whole entry partner): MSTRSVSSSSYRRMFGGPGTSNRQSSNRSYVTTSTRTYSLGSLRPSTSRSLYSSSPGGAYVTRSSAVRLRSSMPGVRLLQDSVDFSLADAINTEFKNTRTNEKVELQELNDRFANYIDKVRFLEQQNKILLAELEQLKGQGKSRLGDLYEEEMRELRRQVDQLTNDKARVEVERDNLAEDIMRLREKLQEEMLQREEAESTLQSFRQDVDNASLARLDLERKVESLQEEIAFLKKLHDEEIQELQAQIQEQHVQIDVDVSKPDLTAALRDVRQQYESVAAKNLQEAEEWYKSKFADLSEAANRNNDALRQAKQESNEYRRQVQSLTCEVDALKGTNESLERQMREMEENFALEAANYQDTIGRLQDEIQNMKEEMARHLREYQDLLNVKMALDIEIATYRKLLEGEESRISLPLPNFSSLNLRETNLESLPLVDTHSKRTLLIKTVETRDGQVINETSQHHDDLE
importin-beta (Homo sapiens, UniProt Q14974), sequence (Q14974 whole entry): as the sequence (Q14974 whole entry partner) above
importin-beta (Homo sapiens, UniProt Q14974), sequence (P02544 whole entry partner): as the sequence (P02544 whole entry partner) above
pERK2, sequence (P28482 whole entry): as the sequence (P28482 whole entry) above
pERK2, sequence (P02544 whole entry partner): as the sequence (P02544 whole entry partner) above
pERK with vimentin, sequence (P28482 2-360): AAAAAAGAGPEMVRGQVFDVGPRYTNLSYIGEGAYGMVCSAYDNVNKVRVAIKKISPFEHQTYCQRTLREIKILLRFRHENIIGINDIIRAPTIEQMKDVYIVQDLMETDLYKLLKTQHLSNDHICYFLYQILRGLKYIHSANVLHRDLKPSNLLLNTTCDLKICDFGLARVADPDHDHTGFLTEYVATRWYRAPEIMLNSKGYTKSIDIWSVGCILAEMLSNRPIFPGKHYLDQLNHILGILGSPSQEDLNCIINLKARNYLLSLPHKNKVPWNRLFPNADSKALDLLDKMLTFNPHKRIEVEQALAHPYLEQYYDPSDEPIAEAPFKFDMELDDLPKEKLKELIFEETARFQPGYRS

For EGTA, the “interaction of GST-pERK with vimentin in axoplasm” value (pERK with vimentin) was “blocked”.
With `CCCC[C@@H](C=O)NC(=O)[C@H](CC(C)C)NC(=O)OCc1ccccc1` [calpeptin] the “lower molecular mass bands of vimentin and peripherin” value (vimentin and peripherin) was “disappeared”.
actinomycin D [ActD] was tested, and the “formation of radioactive importin-beta protein” value (importin-beta [1]) was “merely reduced”.
vimentin was tested, and the “vimentin binding to pERK2” value (pERK2) was “calcium dependent”, the “effect of changing calcium concentrations on the vimentin-importin-beta interaction” value (importin-beta [2]) was “little or no effect” and the “pull-down with GST-importin-beta” value (importin-beta [2]; did not precipitate with GST alone) was “readily pulled down”. For the same compound, the “hydrolysis of p-nitrophenyl phosphate by alkaline phosphatase” value (alkaline phosphatase) was “no effect”, the “calcium dependence of protection of pERK2 from dephosphorylation” value (pERK; 2 micrograms vimentin, varied calcium) was “calcium dependent manner” and the “protection of pERK2 from the phosphatases” value (pERK; three-fold to six-fold molar ratio to pERK, alkaline phosphatase or axoplasm) was “almost complete protection”.
For `C[C@@H]1C[C@@H]([C@H](O)CC2CC(=O)NC(=O)C2)C(=O)[C@@H](C)C1` [CHX, cycloheximide], the “formation of radioactive importin-beta protein” value (importin-beta [1]) was “not formed”.
